In data set [1] the target is human recombinant TAK1-TAB1 Kinase (TAK1 (1-303) and TAB1 (437-end)) (Homo sapiens (Human), UniProt O43318). The data set is described as follows: TAK1 biochemical ADP-Glo kinase assay. The settings on record: MBP substrate. In outline:
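Inhibition of human recombinant TAK1-TAB1 kinase was measured with a Promega ADP-Glo luminescence assay in 384-well plates. Compounds in 5% DMSO were pre-incubated 10 min with 2 μl TAK1-TAB1 (7.5 ng/μl) in buffer of Tris pH 7.5, MgCl2, DTT and BSA. MBP substrate and ATP were then added for 1 hour at room temperature. ADP-Glo reagent and kinase detection substrate followed, luminescence was read on an Envision, and IC50 came from non-linear regression.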

Data set [2] can be described thus: Solubility assay in phosphate buffer. Conditions: phosphate buffer, pH 7.4, aqueous buffer, kinetic from dmso stock.
Protocol: The aqueous solubility of selected example compounds was determined as follows; 6 μL of DMSO stock solution of the selected example was added to 594 μL phosphate buffer (100 mM, pH 7.4). The resulting mixture was equilibrated over night (20-24 h, Alligator Shaker, room temperature). The mixture was then filtered (Millex LH 0.45 μm) and the concentration/solubility was determined by LC-UV quantification.
Where [3] appears, read: 10 μM ATP, read-out: TAK1 Mean IC50 (nM) @ 10 μM ATP.
The mark [4] stands for this setting: 1 mM ATP, read-out: TAK1 Mean IC50 (nM) @ 1 mM ATP.
[5] abbreviates: Solubility (μM), phosphate buffer 100 mM, pH 7.4, room temperature, 20-24 h, LC-UV.

The structures appear in SMILES notation. In brackets after ≈: the same amount, converted by molar mass. Where two headings read alike, the source gives them in different places.

Chain of human recombinant TAK1-TAB1 Kinase (TAK1 (1-303) and TAB1 (437-end)) (O43318 other isoform, or with tags, fused parts or gaps): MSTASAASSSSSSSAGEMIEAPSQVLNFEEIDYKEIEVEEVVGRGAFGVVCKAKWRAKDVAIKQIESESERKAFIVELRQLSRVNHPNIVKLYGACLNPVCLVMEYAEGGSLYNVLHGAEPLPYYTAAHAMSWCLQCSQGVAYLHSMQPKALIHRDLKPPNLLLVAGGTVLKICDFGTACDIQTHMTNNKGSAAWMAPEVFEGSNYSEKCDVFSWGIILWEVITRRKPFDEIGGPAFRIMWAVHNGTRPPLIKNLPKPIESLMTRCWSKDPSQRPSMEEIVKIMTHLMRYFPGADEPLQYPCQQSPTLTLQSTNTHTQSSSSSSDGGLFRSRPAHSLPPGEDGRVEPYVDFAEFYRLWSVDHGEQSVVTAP

Broadly, the IC50 is the concentration that inhibits the measured activity by half. As usually defined, the solubility is the dissolved amount per volume that the medium holds. On to `CC1CCCCNC(=O)c2cccc(c2)C(=O)Nc2nc3cccc(C(=O)N(C)C)c3n21` (single isomer, unassigned) [Example 32, (E)-N,N,11-trimethyl-3,5-dioxo-1^2,1^3-dihydro-1^1H-2,6-diaza-1(2,1)-benzo[d]imidazola-4(1,3)-benzenacycloundecaphane-1^7-carboxamide], for which the IC50 was found to be 3 nM in data set [1] (setting [3]) and 14 nM in data set [1] (setting [4]). The compound also registered a solubility in data set [2] (setting [5]) of 95 µM (≈ 41.2 µg/mL).
In the case of `C[C@H]1CCCCNC(=O)c2cccc(c2)C(=O)Nc2nc3ccc(Cl)c(C(=O)N(C)C)c3n21` (single isomer, unassigned) [Example 54], the values for the IC50 in data set [1] (setting [3]) and in data set [1] (setting [4]) were 8 nM and 25 nM, respectively. The solubility in data set [2] (setting [5]) came to 9 µM (≈ 4.21 µg/mL).
Take `CC1CCCCNC(=O)c2cccc(c2)C(=O)/N=C2\Nc3cccc(C(=O)N(C)CCF)c3N21` (single isomer, unassigned) [Example 70, (E)-N-(2-fluoroethyl)-N,11-dimethyl-3,5-dioxo-1^2,1^3-dihydro-1^1H-2,6-diaza-1(2,1)-benzo[d]imidazola-4(1,3)-benzenacycloundecaphane-1^7-carboxamide]: the figures for the half-maximal inhibitory concentration (IC50) in data set [1] (setting [3]) and in data set [1] (setting [4]) were 5 nM and 6 nM, respectively. Also, in data set [2] (setting [5]), the solubility was 90 µM (≈ 41.9 µg/mL).
For the compound `CC1CCCCNC(=O)c2cccc(c2)C(=O)/N=C2\Nc3cccc(C(=O)N4CCOC[C@H]4C)c3N21` (single isomer, unassigned) [Example 76], the IC50 in data set [1] (setting [3]) turned out to be 18 nM. This compound also gave a solubility in data set [2] (setting [5]) of 89 µM (≈ 43.6 µg/mL).
As for `CC1CCCCNC(=O)c2cccc(c2)C(=O)/N=C2\Nc3cccc(C(=O)N4CCOC[C@@H]4C)c3N21` (single isomer, unassigned) [Example 78], the IC50 in data set [1] (setting [3]) came out at 8 nM. This compound also yielded a solubility in data set [2] (setting [5]) of 86 µM (≈ 42.1 µg/mL).
In the case of `CC1CCCCNC(=O)c2cccc(c2)C(=O)/N=C2\Nc3cccc(C(=O)N4CC5(CCO5)C4)c3N21` (single isomer, unassigned) [Example 79, (E)-11-methyl-1^7-(1-oxa-6-azaspiro[3.3]heptane-6-carbonyl)-1^2,1^3-dihydro-1^1H-2,6-diaza-1(2,1)-benzo[d]imidazola-4(1,3)-benzenacycloundecaphane-3,5-dione], the IC50 in data set [1] (setting [3]) was found to be 6 nM; in data set [1] (setting [4]), 7 nM. This compound came in with a solubility in data set [2] of 90 µM (≈ 43.9 µg/mL).
Turning to `CC1CCCCNC(=O)c2cccc(c2)C(=O)/N=C2\Nc3cccc(C(=O)N4CC[C@H](F)C4)c3N21` (single isomer, unassigned) [Example 89], the IC50 in data set [1] (setting [3]) is 6 nM. Also, the solubility in data set [2] (setting [5]) came to 88 µM (≈ 42 µg/mL).
Turning to `C[C@H]1CCCCNC(=O)c2cccc(c2)C(=O)/N=C2\Nc3cccc(C(=O)N4CCC5(COC5)C4)c3N21` [Example 115, (S,E)-11-methyl-1^7-(2-oxa-6-azaspiro[3.4]octane-6-carbonyl)-1^2,1^3-dihydro-1^1H-2,6-diaza-1(2,1)-benzo[d]imidazola-4(1,3)-benzenacycloundecaphane-3,5-dione], the IC50 in data set [1] (setting [4]) was 11 nM.
With `C[C@H]1CCCCNC(=O)c2cccc(c2)C(=O)/N=C2\Nc3cccc(C(=O)N4CC5(CCCO5)C4)c3N21` [Example 116, (S,E)-11-methyl-1^7-(5-oxa-2-azaspiro[3.4]octane-2-carbonyl)-1^2,1^3-dihydro-1^1H-2,6-diaza-1(2,1)-benzo[d]imidazola-4(1,3)-benzenacycloundecaphane-3,5-dione], the IC50 in data set [1] (setting [4]) turned out to be 3 nM.
On the same count and under the same terms, as for `C[C@H]1CCCCNC(=O)c2cccc(c2)C(=O)/N=C2\Nc3cccc(C(=O)N4CC5(C4)CC(F)(F)CO5)c3N21` [Example 117, (S,E)-1^7-(7,7-difluoro-5-oxa-2-azaspiro[3.4]octane-2-carbonyl)-11-methyl-1^2,1^3-dihydro-1^1H-2,6-diaza-1(2,1)-benzo[d]imidazola-4(1,3)-benzenacycloundecaphane-3,5-dione], the figure is 4 nM.
Turning to `[2H]C([2H])([2H])N(C(=O)c1cccc2c1N1/C(=N/C(=O)c3cccc(c3)C(=O)NCCCC[C@@H]1C)N2)C([2H])([2H])[2H]` [Example 118, (S,E)-11-methyl-N,N-bis(methyl-d3)-3,5-dioxo-1^2,1^3-dihydro-1^1H-2,6-diaza-1(2,1)-benzo[d]imidazola-4(1,3)-benzenacycloundecaphane-1^7-carboxamide], the IC50 in data set [1] (setting [4]) came to 15 nM.
For `C[C@H]1CCCCNC(=O)c2cccc(c2)C(=O)/N=C2\Nc3ccnc(N4CCCC4=O)c3N21` [Example 119, (S,E)-11-methyl-1^4-(2-oxopyrrolidin-1-yl)-1^2,1^3-dihydro-1^1H-2,6-diaza-1(2,3)-imidazo[4,5-c]pyridina-4(1,3)-benzenacycloundecaphane-3,5-dione], the IC50 was 7 nM in data set [1] (setting [3]) and 22 nM in data set [1] (setting [4]).
Taken in the same sequence, the figures for `C[C@H]1CCCCNC(=O)c2cccc(c2)C(=O)/N=C2\Nc3ccnc(N4CCN(C5CC5)C4=O)c3N21` [Example 122, (S,E)-1^4-(3-cyclopropyl-2-oxoimidazolidin-1-yl)-11-methyl-1^2,1^3-dihydro-1^1H-2,6-diaza-1(2,3)-imidazo[4,5-c]pyridina-4(1,3)-benzenacycloundecaphane-3,5-dione] were 9 nM and 57 nM.
For `C[C@H]1CCCCNC(=O)c2cccc(c2)C(=O)/N=C2\Nc3cc(CN4CCN(C)CC4)cc(C(=O)N(C)C)c3N21` [Example 124, (S,E)-N,N,11-trimethyl-1^5-((4-methylpiperazin-1-yl)methyl)-3,5-dioxo-1^2,1^3-dihydro-1^1H-2,6-diaza-1(2,1)-benzo[d]imidazola-4(1,3)-benzenacycloundecaphane-1^7-carboxamide], the IC50 in data set [1] (setting [3]) stood at 7 nM; in data set [1] (setting [4]), 9 nM.
For `C[C@H]1CCCCNC(=O)c2cccc(c2)C(=O)/N=C2\Nc3cc(CN4CCOCC4)cc(C(=O)N(C)C)c3N21` [Example 125, (S,E)-N,N,11-trimethyl-1^5-(morpholinomethyl)-3,5-dioxo-1^2,1^3-dihydro-1^1H-2,6-diaza-1(2,1)-benzo[d]imidazola-4(1,3)-benzenacycloundecaphane-1^7-carboxamide], the 50% inhibitory concentration (IC50) in data set [1] (setting [3]) worked out at 5 nM; in data set [1] (setting [4]), 7 nM.
Take `C[C@H]1CCCCNC(=O)c2cccc(c2)C(=O)/N=C2\Nc3ccnc(C(=O)N(C)C)c3N21` [Example 128, (S,E)-N,N,11-trimethyl-3,5-dioxo-1^2,1^3-dihydro-1^1H-2,6-diaza-1(2,3)-imidazo[4,5-c]pyridina-4(1,3)-benzenacycloundecaphane-1^4-carboxamide]: the half-maximal inhibitory concentration (IC50) in data set [1] (setting [3]) was 7 nM.
For `C[C@H]1CCCCNC(=O)c2cccc(c2)C(=O)/N=C2\Nc3cccc(-c4cn(C5COC5)nn4)c3N21` [Example 129, (S,E)-11-methyl-1^7-(1-(oxetan-3-yl)-1H-1,2,3-triazol-4-yl)-1^2,1^3-dihydro-1^1H-2,6-diaza-1(2,1)-benzo[d]imidazola-4(1,3)-benzenacycloundecaphane-3,5-dione], the IC50 in data set [1] (setting [3]) and in data set [1] (setting [4]) was 6 nM each time.
As for `C[C@H]1CCCCNC(=O)c2cccc(c2)C(=O)/N=C2\Nc3ccnc(N4CCN(C)C4=O)c3N21` [Example 130, (S,E)-11-methyl-1^4-(3-methyl-2-oxoimidazolidin-1-yl)-1^2,1^3-dihydro-1^1H-2,6-diaza-1(2,3)-imidazo[4,5-c]pyridina-4(1,3)-benzenacycloundecaphane-3,5-dione], the IC50 in data set [1] (setting [3]) is 7 nM; in data set [1] (setting [4]), 27 nM.
Taken in the same sequence, the figures for `CN(C)C(=O)c1cccc2c1N1/C(=N/C(=O)c3cccc(c3)C(=O)NCCCCC13CC3)N2` [Example 131, (E)-N,N-dimethyl-3′,5′-dioxospiro[cyclopropane-1,11′-2,6-diaza-1(2,1)-benzo[d]imidazola-4(1,3)-benzenacycloundecaphane]-7′-carboxamide] were 5 nM and 13 nM.
Taken in the same sequence, the figures for `Cc1nnc(-c2cccc3c2N2/C(=N/C(=O)c4cccc(c4)C(=O)NCCCC[C@@H]2C)N3)n1C(C)C` [Example 134, (S,E)-1^7-(4-isopropyl-5-methyl-4H-1,2,4-triazol-3-yl)-11-methyl-1^2,1^3-dihydro-1^1H-2,6-diaza-1(2,1)-benzo[d]imidazola-4(1,3)-benzenacycloundecaphane-3,5-dione] were 10 nM and 12 nM.
`C[C@H]1CCCCNC(=O)c2cccc(c2)C(=O)/N=C2\Nc3cncc(C(=O)N(C)C)c3N21` [Example 145, (S,E)-N,N,11-trimethyl-3,5-dioxo-1^2,1^3-dihydro-1^1H-2,6-diaza-1(2,1)-imidazo[4,5-c]pyridina-4(1,3)-benzenacycloundecaphane-1^7-carboxamide]: the IC50 in data set [1] (setting [3]) worked out at 10 nM.
As to `C[C@H]1CCCCNC(=O)c2cccc(c2)C(=O)/N=C2\Nc3cccc(N4CCC(F)C4=O)c3N21` (stereo partly drawn) [Example 146, (11S,E)-1^7-(3-fluoro-2-oxopyrrolidin-1-yl)-11-methyl-1^2,1^3-dihydro-1^1H-2,6-diaza-1(2,1)-benzo[d]imidazola-4(1,3)-benzenacycloundecaphane-3,5-dione], the concentration for half-maximal inhibition (IC50) in data set [1] (setting [3]) is 5 nM; in data set [1] (setting [4]), 9 nM.
On to `Cc1noc(-c2cccc3c2N2/C(=N/C(=O)c4cccc(c4)C(=O)NCCCC[C@@H]2C)N3)n1` [Example 147, (S,E)-11-methyl-1^7-(3-methyl-1,2,4-oxadiazol-5-yl)-1^2,1^3-dihydro-1^1H-2,6-diaza-1(2,1)-benzo[d]imidazola-4(1,3)-benzenacycloundecaphane-3,5-dione], for which the IC50 in data set [1] (setting [3]) stood at 5 nM.

For the origin of these results see US20240279233A1, “MACROCYCLIC TAK1 INHIBITORS” (Aqilion AB, priority 2021, published 2024).
